Measured values as given in paper PMC10674476, “Development of a Novel In Vitro Model to Study Lymphatic Uptake of Drugs via Artificial Chylomicrons” (Pharmaceutics, 2023).
Read-outs that look alike come from different tables or passages of the source. Marks after values point to notes of the source that are not given here.

Experiments:
[1] = cited from earlier work; for Density: ref ChemBK **, ChemSpider ***, # drugfuture.com, ## chemsrc.com; for PSA (polar surface area): ref DrugBank, in Å2 (unit assumed)
[2] = In vitro lymphatic uptake model (Franz cell, Intralipid receiver, octanol-impregnated PVDF membrane); conditions: 37 °C, 0–4 h, rank among the four tested drugs
Procedure: The Franz Cell receiver compartment was filled with 12 mL of either Intralipid® or Intralipid® mixed with a potential inhibitor or enhancer and maintained at 37.0 ± 0.5 °C with magnetic stirring at 600 rpm, as shown in Figure 2. A synthetic 0.22 µm Polyvinylidene Fluoride (PVDF) membrane impregnated with octanol was placed between compartments. […] Two mL solutions of the model drugs were added to the donor compartment with the receiver compartment containing either Intralipid® or Intralipid® mixed with an enhancer or an inhibitor. At different time intervals (0–4 h), 0.2 mL samples were withdrawn, extracted, and analyzed for drug content using HPLC with a C18 column (150 mm × 4.6 mm i.d., 5 µm).
Therefore, this in vitro model was developed to replicate this in vivo process. Since certain lipophilic drugs are taken up from the intestinal lumen into enterocytes and subsequently enclosed within chylomicrons, the developed model was designed to include a donor compartment, resembling the intestinal lumen, where the drug solution is placed. Additionally, there was a receiver compartment that contains an artificial chylomicron medium, simulating the environment within enterocytes. These two compartments were separated by an octanol-immersed membrane, which served as a representation of the lipophilic cell membrane found in enterocytes (Figure 2).

[3] = parameters: method as in PMID 32785853; conditions: Sprague-Dawley rats, cited from earlier work
[4] = parameters: method as in PMID 32785853, PMID 29109461; conditions: cited from earlier work
[5] = lipidic vehicles, lymph-cannulated rats; cited from earlier work
[6] = long-chain triglyceride formulation; cited from earlier work
[7] = parameters: method as in PMID 19916501; conditions: 30 mg/kg intraduodenal, mesenteric-cannulated rat; cited from earlier work
[8] = parameters: method as in PMID 23200408; conditions: intraduodenal, thoracic duct-cannulated rats; cited from earlier work
[9] = oral; cited from earlier work

Compound	Density [1]	PSA (polar surface area) [1]	HBA (hydrogen-binding acceptors) ([1]; ref PubChem (* DrugBank))	HBD (hydrogen binding donors) ([1]; ref PubChem (* DrugBank))	LogP ([1]; ref PubChem (* DrugBank))	lymphatic uptake (release into the receiver compartment) [2]	increase in systemic exposure with lipids versus lipid-free formulations [3]	increase in systemic exposure with lipids versus lipid-free formulations ([3]; listed as CBD)	increase in plasma concentration with sesame oil [4]	increase in systemic exposure with sesame oil [4]	pKa ([1]; ref PubChem (* DrugBank))	total systemic exposure [5]	total bioavailability [6]	Cmax in the lymph relative to plasma [7]	transport through the lymphatic system with soybean oil [8]	systemic exposure compared to testosterone administration [9]
C=C(C)[C@@H]1CCC(C)=C[C@H]1c1c(O)cc(CCCCC)cc1O [Cannabidiol, cannabidiol]	1.04 ^# g/cm^3	40.46 *	2 *	2 *	6.3 *	moderate efficiency	factor of three	three-fold increase	250 fold	2.8 fold	–	–	–	–	–	–
CCCCN(CCCC)CCC(O)c1cc2c(Cl)cc(Cl)cc2c2cc(C(F)(F)F)ccc12 (stereo not drawn) [Halofantrine]	1.2 *** g/cm^3	23.5 *	5	1	8.9	–	–	–	–	–	14.47	22.7 % of the administered dose	19.1%	–	–	–
O=c1c(O)c(-c2ccc(O)c(O)c2)oc2cc(O)cc(O)c12 [Quercetin, quercetin]	1.8 ^## g/cm^3	127.45 *	7	5	1.48	moderate efficiency	–	–	–	–	–	–	–	approximately five times higher	notably improved	–
CO[C@H]1/C=C/O[C@@]2(C)Oc3c(C)c(O)c4c(O)c(c(/C=N/N5CCN(C)CC5)c(O)c4c3C2=O)NC(=O)/C(C)=C\C=C\[C@H](C)[C@H](O)[C@@H](C)[C@@H](O)[C@@H](C)[C@H](OC(C)=O)[C@@H]1C [Rifampicin, rifampicin]	1.178 ** g/cm^3	220.15 *	15	6	4.9	least available	–	–	–	–	–	–	–	–	–	–
CCCCCCCCCCC(=O)O[C@H]1CC[C@H]2[C@@H]3CCC4=CC(=O)CC[C@]4(C)[C@H]3CC[C@]12C [testosterone undecanoate]	–	–	–	–	–	–	–	–	–	–	–	–	–	–	–	higher systemic exposure
